Results on three compounds are retold here after patent publication US12116421B2, “Peptide-based Dopa containing adhesive gels” (KING ABDULLAH UNIVERSITY OF SCIENCE AND TECHNOLOGY, priority 2020, dated 2024).

Series [1] relates to mouse myoblast cells (C2C12). Kind of series: Cytocompatibility of peptide nanogels, 3D culture, MTT and live/dead staining. Format: cell-based. Here is the method: In one embodiment, cytocompatibility of the peptide nanogels was evaluated using mouse myoblast cells (C2C12). After 24 hours of incubation, cell proliferation was tested with DoIIZK, IIZDoK, IIZKDo, IIZ(KDo)2 and IIZ(KDo)3 at a concentration of 3 mg/mL to evaluate biocompatibility. The MTT (3-(4,5-dimethylthiazol-2-yl)-2,5-diphenyltetrazolium bromide) assay was used in order to quantify the number of viable cells. In one embodiment, a standard curve for a known number of cells was also plotted. In one embodiment, the test results were compared to the positive control 2D culture. A positive indication of cytocompatibility would be the survival of the cells following incubation with the peptides. For comparison, peptides DoIIZK, IIZDoK, IIZKDo, IIZ(KDo)2 and IIZ(KDo)3 were tested as part of the study. The cytocompatibilty of all peptides tested was evaluated by quantifying the survival cells by visualising the live/dead cells using calcein AM and Ethidium bromide staining.
Poli-D Lysine (PDL) was used for 2D control. The scalebar in FIG. 35 is 200 μm. Cytocompatibility of all peptides was evaluated by quantifying the survival cells by visualising the live/dead cells using calcein AM and Ethidium homodimer staining. The live cells are stained green by calcein AM, while the dead cells are stained red by Ethidium homodimer.
For mouse myoblast cells (C2C12) culture expansion, C2C12 cells were cultured either in a T175 or T75 culture flask in complete DMEM media (10% FBS and 1% P/S). The cells were placed in a humidified incubator at 37° C., with 95% air and 5% CO2. Then they were subcultured using trypsin at approximately 80% confluence. Fresh culture media was added every 48 h to each well, after removing the previous media.
For 3D culture of mouse myoblast cells in peptide hydrogels and cell viability assay, C2C12 cells were encapsulated in peptide hydrogels in a 96-well plate.^61 Briefly, peptide solutions DopaIIZK, IIZDopaK, IIZKDopa (3 mg/mL) were added to 40 μL/well. Mouse myoblast cells (30,000 cells/well) that were re-suspended in 2×PBS were then, mixed gently with the peptide solutions. The gelation time was 1-3 min for all 5 peptides. Subsequently, the culture medium was added to the wells.
The viability of 3D cultured cells was assessed using the LIVE/DEAD Viability/Cytotoxicity Kit (ThermoFisher®, USA)^11. Calcein acetoxymethyl ester (Calcein-AM) is used to detect viable cells and ethidium homodimer-I (EthD-I) is used to detect dead cells. Briefly, staining with 2 μM of Calcein-AM and 4 μM of EthD-1 is performed after washing with Dulbecco's phosphate-buffered saline (D-PBS). After 30 minutes incubation, the staining solution was discarded, and 1×D-PBS was added to each well before imaging. Stained cells were imaged with an inverted confocal microscope (Zeiss® LSM 710 Inverted Confocal Microscope, Germany) or ZEISS® fluorescent microscope.

A short description of series [2]: Rheology of peptide hydrogels (storage and loss modulus). Conditions: 15 mg/mL in 1×PBS. Type of series: physicochemical. Here is the method:
In one embodiment, the structural characteristics of these peptides also influence the rheological properties of the peptides, such as stiffness. The stiffness of the peptide hydrogels was assessed by rheology measurements. The five peptides, DoIIZK, IIZDoK, IIZKDo, IIZ(KDo)2 and IIZ(KDo)3 were dispersed in phosphate-buffered saline (1×PBS) to final concentrations of […]. Only DoIIZK and IIZKDo formed transparent hydrogels after preparation of gels onto rheology glass rings; the rest of the peptides formed grey/opaque hydrogels. This difference implies that the fibrils of peptides DoIIZK and IIZKDo had sufficient time to disperse and spread in solution before entrapping water to gel, while peptides IIZDoK, IIZ(KDo)2 and IIZ(KDo)3 gelled quickly upon fibril formation. Therefore, the rheological properties of the peptides were measured at the concentration of 15 mg/ml. […] The storage modulus and loss modulus reflect the stress response of the hydrogel in oscillatory shear. […]
Peptide hydrogels were prepared by weighing the appropriate peptide amount of the lyophilized peptide powder in 2 mL glass-vials. […] Rheological analysis mechanical properties of the formed gels were assessed by using the TA Ares-G2 Rheometer with an 8 mm titanium parallel-plate geometry. […] Time-sweep, frequency-sweep, and amplitude-sweep, were measured for each sample to explore the mechanical stiffness of the gels. […]

The structures appear in SMILES notation. Where a SMILES comes first, the peptide text is derived from it. [ ]: non-standard residue; d: D form. Dopa = N[C@@H](Cc1ccc(O)c(O)c1)C(=O)O; Cha = N[C@@H](CC1CCCCC1)C(=O)O

Consider `CC[C@H](C)[C@H](NC(=O)[C@H](Cc1ccc(O)c(O)c1)NC(C)=O)C(=O)N[C@H](C(=O)N[C@@H](CC1CCCCC1)C(=O)N[C@@H](CCCCN)C(N)=O)[C@@H](C)CC` [DoIIZK, Ac-Dopa-Ile-Ile-Cha-Lys-NH2] (Ac-[Dopa]II[Cha]K-NH2), for which, in series [1], the “biocompatibility with C2C12 cells” value is reported as “biocompatible”, the “cell viability / toxicity” value is “good viability”, the “metabolic activity of cells versus 2D cultures” value is listed as “consistently comparable to 2D cultures” and the “time cells stay metabolically active in nanogel” value was “metabolically active for up to day 21”.
Consider `CC[C@H](C)[C@H](NC(C)=O)C(=O)N[C@H](C(=O)N[C@@H](CC1CCCCC1)C(=O)N[C@@H](Cc1ccc(O)c(O)c1)C(=O)N[C@@H](CCCCN)C(N)=O)[C@@H](C)CC` [IIZDoK, Ac-Ile-Ile-Cha-Dopa-Lys-NH2] (Ac-II[Cha][Dopa]K-NH2), for which the “Storage and Loss moduli, times lower than DoIIZK and IIZKDo” value in series [2] is given as “roughly 10 times”. For the same compound, the Storage modulus in series [2] (25° C.) was 2-5 kPa. In addition, in series [1], the “biocompatibility with C2C12 cells” value is recorded as “biocompatible”, the “cell viability / toxicity” value is recorded as “good viability”, the “metabolic activity of cells versus 2D cultures” value is “consistently comparable to 2D cultures” and the “time cells stay metabolically active in nanogel” value is given as “metabolically active for up to day 21”.
Regarding `CC[C@H](C)[C@H](NC(C)=O)C(=O)N[C@H](C(=O)N[C@@H](CC1CCCCC1)C(=O)N[C@@H](CCCCN)C(=O)N[C@@H](Cc1ccc(O)c(O)c1)C(N)=O)[C@@H](C)CC` [IIZKDo, Ac-Ile-Ile-Cha-Lys-Dopa-NH2] (Ac-II[Cha]K[Dopa]-NH2), in series [1], the “biocompatibility with C2C12 cells” value is “biocompatible”, the “cell viability / toxicity” value was “good viability”, the “metabolic activity of cells versus 2D cultures” value is recorded as “consistently comparable to 2D cultures” and the “time cells stay metabolically active in nanogel” value is reported as “metabolically active for up to day 21”.
